Experimental data taken from patent publication US20240342156A1, “METHODS FOR TREATING PAIN” (Xenon Pharmaceuticals Inc., priority 2019, published 2024).
Where two headings read alike, the source gives them in different places.

Assay: Crossover study with pharmacokinetic analysis, single oral dose in healthy male subjects
Type: in vivo, human
Details: for concentration at 6 days: oral, subjects who received placebo in Period 2
Excerpt: The pharmacokinetics (PK), safety, and tolerability of single doses of Compound A in healthy right-handed male human subjects were investigated in a randomized, double-blind, placebo-controlled, transcranial magnetic stimulation (TMS) crossover study.
An objective of the study was to evaluate the safety, tolerability, and pharmacokinetics of single doses of Compound A in healthy male subjects.
Twenty healthy right-handed male subjects were enrolled and randomized in a blinded fashion to receive a single oral dose of 20 mg Compound A or placebo (1:1 randomization ratio) on Day 1, then were crossed over to receive a single dose of the other treatment on Day 7.
Subjects were screened within 27 days prior to entering the study on Day 1. For Period 1, subjects were admitted to the study unit and dosed on Day 1, and discharged on Day 2. For Period 2, following a washout of 6 days, the same subjects were again admitted to the study unit and dosed on Day 7, and discharged on Day 8. All subjects returned to the clinical unit for an outpatient visit on Day 14, and received a follow-up telephone call on Day 37.
Subjects were dosed in a fed state, but the timing of dosing relative to meals was changed during the study, and varied between a high fat or standard meal eaten either 2 h or 30 minutes prior to dosing, and a high fat or standard meal eaten 1 h or 2.5 h after dosing.
The PK parameters for this study were summarized in two ways. Firstly, PK parameters were calculated where possible using the PK samples collected during each 24 h sampling period for Period 1 and Period 2 separately. Secondly, PK parameters were determined using samples beyond the 24 h sampling period (i.e., from Day 7/8 and/or Day 14). For subjects who received Compound A in the first period, PK samples taken prior to placebo treatment provided additional PK timepoints at >24 h. For subjects who received Compound A in the second period, there was no >24 h PK timepoint until a Day 14 PK sample was added. […] The full PK profile data set consists of the 16 subjects for whom PK samples were taken at >24 h post-dose. For discussion of the PK parameters below, the full PK profile data set was generally used, because it allowed more accurate estimation of PK parameters.
Initially, subjects were dosed 2 hours after a high fat meal with a relatively high fat lunch provided 1 hour after dosing. After blinded review of the PK profiles in the initial 8 subjects, the fat content of the lunch was reduced in an attempt to reduce the time to Tmax. In addition, the timing of the meal relative to dose was changed from 2 hours prior, to 30 minutes prior to dose and subsequently the fat content of the breakfast was reduced. The timing and type of meal for each subject is specified in Table 8. […] As such the PK data is presented without categorization according to meal content, or relative timing of the meal.

[1] = 20 mg single oral dose, fed, Full PK Profile (N = 16)
[2] = 20 mg single oral dose, fed, Overall (N = 20)
[3] = 20 mg single oral dose, fed, Period 1 (N = 10)
[4] = 20 mg single oral dose, fed, Period 2 (N = 10)
[5] = 20 mg single oral dose, full PK data set

- Clast (ng/mL), Mean ± SD [1]: 4.52 ± 1.82 ng/mL
- Clast (ng/mL), Range [1]: 1.33 to 7.67 ng/mL
- Tlast (h), Mean ± SD [1]: 235 ± 81.5 h
- Tlast (h), Range [1]: 142 to 360 h
- Clast (ng/mL), Mean ± SD [2]: 16.4 ± 4.69 ng/mL
- Clast (ng/mL), Range [2]: 7.1 to 27.8 ng/mL
- Tlast (h), Mean ± SD [2]: 23.8 ± 0.299 h
- Tlast (h), Range [2]: 23.1 to 24.3 h
- Tmax (h), Median [2]: 7.83 h
- Tmax (h), Range [2]: 1.92 to 12 h
- Clast (ng/mL), Mean ± SD [3]: 16.4 ± 5.61 ng/mL
- Clast (ng/mL), Range [3]: 10.1 to 27.8 ng/mL
- Tlast (h), Mean ± SD [3]: 23.8 ± 0.375 h
- Tlast (h), Range [3]: 23.1 to 24.3 h
- Clast (ng/mL), Mean ± SD [4]: 16.4 ± 3.87 ng/mL
- Clast (ng/mL), Range [4]: 7.1 to 21.3 ng/mL
- Tlast (h), Mean ± SD [4]: 23.8 ± 0.213 h
- Tlast (h), Range [4]: 23.5 to 24.1 h
- extrapolated area (% AUCextrap), median [5]: 19.9%
- extrapolated area (% AUCextrap), range [5]: 10.6-40.5%
- concentration at 6 days (male, human, plasma, 20 mg, read-out: Compound A levels after washout between periods, mean): 3.1 ng/mL
- concentration at 6 days (male, human, plasma, 20 mg, read-out: Compound A levels after washout between periods, range): 1.3 to 6.8 ng/mL
- concentration at 2 h (male, human, plasma, po, 20 mg, 2 h timepoint, 20 mg single oral dose, full PK profile, read-out: mean SD plasma concentration): 15.9 ± 21.4 ng/mL
- concentration at 4 h (male, human, plasma, po, 20 mg, 4 h timepoint, 20 mg single oral dose, full PK profile, read-out: mean SD plasma concentration): 30.2 ± 21.1 ng/mL
- concentration at 6 h (male, human, plasma, po, 20 mg, 6 h timepoint, 20 mg single oral dose, full PK profile, read-out: mean SD plasma concentration): 42.1 ± 19.1 ng/mL
- AUC(0-inf) (male, human, plasma, 20 mg single oral dose, fed, Full PK Profile Data Set (N = 16), read-out: AUCinf (ng*h/mL), Range): 1920 to 7390 ng·h/mL
- AUC(0-t) (male, human, plasma, 20 mg single oral dose, fed, Full PK Profile Data Set (N = 16), read-out: AUClast (ng*h/mL), Range): 1580 to 4400 ng·h/mL
- CL/F (male, human, plasma, 20 mg single oral dose, fed, Full PK Profile Data Set (N = 16), read-out: CL/F normalized (mL/h/kg), Range): 40.3 to 136 mL/h/kg
- MRT inf (male, human, plasma, 20 mg single oral dose, fed, Full PK Profile Data Set (N = 16), read-out: MRTinf (h), Range): 33 to 304 h
- MRT last (male, human, plasma, 20 mg single oral dose, fed, Full PK Profile Data Set (N = 16), read-out: MRTlast (h), Range): 48.2 to 122 h
- Vd/F (male, human, plasma, 20 mg single oral dose, fed, Full PK Profile Data Set (N = 16), read-out: Vz/F normalized (L/kg), Range): 6.4 to 33.8 L/kg
- Tmax (male, human, plasma, 20 mg single oral dose, fed, Overall (N = 20), read-out: Tmax (h), Median): ~8 h
SMILES: Cc1cc(N2CCc3cc(F)ccc3C2)cc(C)c1NC(=O)CC(C)(C)C [Compound A, N-[4-(6-fluoro-3,4-dihydro-TH-isoquinolin-2-yl)-2,6-dimethylphenyl]-3,3-dimethylbutanamide]
